Assay results reported in ChEMBL document CHEMBL4339232, “Exploiting Chemical Toolboxes for the Expedited Generation of Tetracyclic Quinolines as a Novel Class of PXR Agonists” (ACS Med Chem Lett, 2019).

How the values were obtained:
[1] = target: T1, Nuclear receptor subfamily 1 group I member 2 (Homo sapiens, UniProt O75469); assay: Agonist activity at PXR (unknown origin) by AlphaScreen assay
T1 sequence (O75469 whole entry): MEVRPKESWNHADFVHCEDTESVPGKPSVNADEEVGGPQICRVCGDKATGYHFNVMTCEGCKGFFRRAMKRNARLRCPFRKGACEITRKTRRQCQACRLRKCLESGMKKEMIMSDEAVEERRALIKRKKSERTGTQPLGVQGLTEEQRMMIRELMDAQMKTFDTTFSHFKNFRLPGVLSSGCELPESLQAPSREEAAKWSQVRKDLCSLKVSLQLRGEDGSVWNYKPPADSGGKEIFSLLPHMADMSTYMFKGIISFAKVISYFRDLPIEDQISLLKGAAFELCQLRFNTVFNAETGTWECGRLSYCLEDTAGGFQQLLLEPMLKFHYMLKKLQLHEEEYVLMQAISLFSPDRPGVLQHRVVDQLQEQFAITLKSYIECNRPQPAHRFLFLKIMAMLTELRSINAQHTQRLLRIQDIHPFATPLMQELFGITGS

[2] = target: T2, PXR (Nuclear receptor subfamily 1 group I member 2) (Homo sapiens, UniProt O75469); assay: Agonist activity at PXR (unknown origin) assessed as maximum receptor activation response at 20 uM by AlphaScreen assay relative to T0901317; conditions: read-out: Efficacy
T2 sequence (O75469 whole entry): T1 sequence (O75469 whole entry)

[3] = target: T2, PXR (Nuclear receptor subfamily 1 group I member 2); assay: Agonist activity at PXR (unknown origin) at 20 uM by AlphaScreen assay relative to T0901317; conditions: read-out: Activity

Row | EC50 [1] [µM] | Emax at 20 µM [2] [%] | activity at 20 µM [3] [%] | Structure (SMILES)
1 | 8.4 | 28 |  | CC(C)(C)OC(=O)N1CC[C@@H]2[C@H](c3ccsc3)Nc3c(ccc4c3CCCC4)[C@@H]21 (racemic)
2 |  |  | < 25 | CC(C)(C)OC(=O)N1CCC[C@@H]2[C@H](c3ccccc3)Nc3c(ccc4c3CCCC4)[C@@H]21 (racemic)
3 |  |  | < 25 | CC(C)(C)OC(=O)N1CCC[C@@H]2[C@@H](c3ccccc3)Nc3c(ccc4c3CCCC4)[C@@H]21 (racemic)
4 |  |  | < 25 | c1ccc([C@H]2Nc3c(ccc4c3CCCC4)[C@@H]3OCC[C@H]23)cc1 (racemic)
5 |  |  | < 25 | c1csc([C@H]2Nc3c(ccc4c3CCCC4)[C@@H]3OCC[C@H]23)c1 (racemic)
6 |  |  | 25 to 50 | CC(C)(C)OC(=O)N1CCC[C@@H]2[C@@H](c3ccco3)Nc3c(ccc4c3CCCC4)[C@@H]21 (racemic)
7 |  |  | < 25 | CC(C)(C)OC(=O)N1CCC[C@@H]2[C@@H](c3ccsc3)Nc3c(ccc4c3CCCC4)[C@@H]21 (racemic)
8 |  |  | 25 to 50 | c1ccc([C@@H]2Nc3c(ccc4c3CCCC4)[C@@H]3OCC[C@H]23)cc1 (racemic)
9 |  |  | < 25 | c1ccc([C@H]2Nc3c(ccc4c3CCCC4)[C@@H]3OCCC[C@H]23)cc1 (racemic)
10 | 3.2 | 60 | 50 to 75 | CC(C)(C)OC(=O)N1CC[C@H]2[C@@H](c3ccsc3)Nc3c(ccc4c3CCCC4)[C@H]21
11 |  |  | < 25 | c1ccc([C@@H]2Nc3c(ccc4c3CCCC4)[C@@H]3OCCC[C@H]23)cc1 (racemic)
12 | 3.5 | 42 | 75 to 100 | c1cc([C@@H]2Nc3c(ccc4c3CCCC4)[C@@H]3OCC[C@H]23)cs1 (racemic)
13 |  |  | 25 to 50 | c1cc([C@H]2Nc3c(ccc4c3CCCC4)[C@@H]3OCC[C@H]23)cs1 (racemic)
14 |  |  | 50 to 75 | c1coc([C@@H]2Nc3c(ccc4c3CCCC4)[C@@H]3OCCC[C@H]23)c1 (racemic)
15 |  |  | < 25 | c1coc([C@@H]2Nc3c(ccc4c3CCCC4)[C@@H]3NCC[C@H]23)c1 (racemic)
16 |  |  | 50 to 75 | CC(C)(C)OC(=O)N1CC[C@@H]2[C@H](c3ccccc3)Nc3c(ccc4c3CCCC4)[C@@H]21 (racemic)
17 |  |  | 50 to 75 | c1coc([C@@H]2Nc3c(ccc4c3CCCC4)[C@@H]3OCC[C@H]23)c1 (racemic)

The next lines start with the compound.

Row | Structure (SMILES) | EC50 [1] [µM] | Emax at 20 µM [2] [%] | activity at 20 µM [3] [%]
18 | c1cc([C@@H]2Nc3c(ccc4c3CCCC4)[C@@H]3NCCC[C@H]23)cs1 (racemic) |  |  | < 25
19 | CC(C)(C)OC(=O)N1CC[C@@H]2[C@@H](c3ccsc3)Nc3c(ccc4c3CCCC4)[C@@H]21 (racemic) | 3.7 | 15 | 
20 | c1coc([C@H]2Nc3c(ccc4c3CCCC4)[C@@H]3OCC[C@H]23)c1 (racemic) |  |  | < 25
21 | c1coc([C@@H]2Nc3c(ccc4c3CCCC4)[C@@H]3NCCC[C@H]23)c1 (racemic) |  |  | < 25
22 | CC(C)(C)OC(=O)N1CC[C@@H]2[C@@H](c3ccccc3)Nc3c(ccc4c3CCCC4)[C@@H]21 (racemic) |  |  | < 25
23 | c1csc([C@@H]2Nc3c(ccc4c3CCCC4)[C@@H]3OCC[C@H]23)c1 (racemic) |  |  | 50 to 75
24 | c1coc([C@H]2Nc3c(ccc4c3CCCC4)[C@@H]3OCCC[C@H]23)c1 (racemic) |  |  | < 25
25 | CC(C)(C)OC(=O)N1CC[C@@H]2[C@H](c3ccco3)Nc3c(ccc4c3CCCC4)[C@@H]21 (racemic) | 1.5 | 53 | 75 to 100
26 | CC(C)(C)OC(=O)N1CC[C@@H]2[C@H]1c1ccc3c(c1N[C@H]2c1ccsc1)CCCC3 | 1.2 to 1.6 | 82 to 119 | 75 to 100
27 | CC(C)(C)OC(=O)N1CC[C@@H]2[C@@H](c3ccco3)Nc3c(ccc4c3CCCC4)[C@@H]21 (racemic) |  |  | 25 to 50
28 | c1ccc([C@@H]2Nc3c(ccc4c3CCCC4)[C@@H]3NCC[C@H]23)cc1 (racemic) |  |  | < 25
29 | CC(C)(C)OC(=O)N1CCC[C@@H]2[C@H](c3ccsc3)Nc3c(ccc4c3CCCC4)[C@@H]21 (racemic) |  |  | 50 to 75
30 | c1cc([C@@H]2Nc3c(ccc4c3CCCC4)[C@@H]3NCC[C@H]23)cs1 (racemic) |  |  | < 25
31 | CC(C)(C)OC(=O)N1CCC[C@@H]2[C@H](c3ccco3)Nc3c(ccc4c3CCCC4)[C@@H]21 (racemic) |  |  | 25 to 50
